# Patent US12428399B2, “Non-hygroscopic crystalline salts of a pyrazole compound, and pharmaceutical compositions and use thereof” (Yissum Research Development Company of the Hebrew …, priority 2019, dated 2025)
# Where a name gives a salt, the structure may show the parent alone. Read-outs that look alike come from different tables or passages of the source.
# What was measured:
# [1] = test system: Ser 45 β-catenin phosphorylation; p53 and β-catenin protein expression; conditions: cited from earlier work
# [2] = test system: Myc, MDM2, and MCL1; conditions: cited from earlier work
# [3] = molecular target: CK1α (Homo sapiens, UniProt P48729); conditions: cited from earlier work
# CK1α, sequence (P48729 whole entry): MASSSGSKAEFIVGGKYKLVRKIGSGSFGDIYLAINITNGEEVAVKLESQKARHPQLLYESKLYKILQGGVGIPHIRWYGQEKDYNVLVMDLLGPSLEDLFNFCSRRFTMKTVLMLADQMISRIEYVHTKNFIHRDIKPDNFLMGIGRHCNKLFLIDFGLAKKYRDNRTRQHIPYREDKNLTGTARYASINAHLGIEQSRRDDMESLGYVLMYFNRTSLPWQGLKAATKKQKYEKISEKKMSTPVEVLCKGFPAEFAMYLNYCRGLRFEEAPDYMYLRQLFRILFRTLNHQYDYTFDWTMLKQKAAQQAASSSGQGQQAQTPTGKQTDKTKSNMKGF
# [4] = Dynamic vapor sorption (DVS) analysis of salts; format: physicochemical; conditions: for loss upon drying at 5% RH / gain from 5 to 95% RH / loss from 95 to 5% RH: DVS isotherm graph; for gain from 5 to 95% RH: adsorption cycle; for loss from 95 to 5% RH: desorption cycle
# Method: The crystalline adipate, benzoate, and tosylate salts were characterized with XRPD, DSC, TGA, and DVS. The DVS analyses were carried out using TA Instruments Q5000 Dynamic Vapor Sorption analyzer. The instrument was calibrated with standard weights and a sodium bromide standard for humidity.
# [5] = Solubility by aliquot addition of test solvent with visual inspection; format: physicochemical; conditions: solution from solubility test
# Source text: Whether dissolution had occurred was judged by visual inspection after addition of each solvent aliquot.
# [6] = Bulk density of the ditosylate salt; format: physicochemical
# [7] = test system: acute myeloid leukemia (AML); conditions: AML mouse models and human-patient-derived xenograph mouse models; cited from earlier work
# [8] = indicated by DVS isotherm graph
compound,measurement,setting,value
"Cn1ncc(-c2nc(N[C@H]3CC[C@H](N)CC3)ncc2Cl)c1CC1CC1 [the Compound, (1r,4r)-N^1-(5-chloro-4-(5-(cyclopropylmethyl)-1-methyl-1H-pyrazol-4-yl)pyrimidin-2-yl)cyclohexane-1,4-diamine]",Ser 45 β-catenin phosphorylation,[1],reduces
same,p53 and β-catenin protein expression,[1],increases
same,"expression of key cancer initiating genes, including Myc, MDM2, and MCL1",[2],significantly reduces
same,CK1α inhibition,[3],inhibitor
"Cn1ncc(-c2nc(NC3CCC(N)CC3)ncc2Cl)c1CC1CC1 (stereo not drawn) [ditosylate salt, (1r,4r)-N^1-(5-chloro-4-(5-(cyclopropylmethyl)-1-methyl-1H-pyrazol-4-yl)pyrimidin-2-yl)cyclohexane-1,4-diamine]",hygroscopicity,[4]; [8],not hygroscopic
same,pH of Solution,[5],5.82
same,bulk density,[6],0.377 g/mL
same,Assay by HPLC (as free base),"25° C./60% RH, 6-Month",100.5 % w/w
same,Purity by HPLC,"25° C./60% RH, 6-Month",99.8 % area
same,Water contectnt by Karl Fisher,"25° C./60% RH, 6-Month",0.41 % w/w
same,pTSA content by HPLC,"25° C./60% RH, 6-Month",48.6 % w/w
same,Assay by HPLC (as free base),"25° C./60% RH, Initial",100.5 % w/w
same,Purity by HPLC,"25° C./60% RH, Initial",99.8 % area
same,Water contectnt by Karl Fisher,"25° C./60% RH, Initial",0.41 % w/w
same,pTSA content by HPLC,"25° C./60% RH, Initial",49.9 % w/w
same,Assay by HPLC (as free base),"40° C./75% RH, 6-Month",100.3 % w/w
same,Purity by HPLC,"40° C./75% RH, 6-Month",99.8 % area
same,Water contectnt by Karl Fisher,"40° C./75% RH, 6-Month",0.58 % w/w
same,pTSA content by HPLC,"40° C./75% RH, 6-Month",49.5 % w/w
same,Assay by HPLC (as free base),"40° C./75% RH, Initial",100.5 % w/w
same,Purity by HPLC,"40° C./75% RH, Initial",99.8 % area
same,Water contectnt by Karl Fisher,"40° C./75% RH, Initial",0.41 % w/w
same,pTSA content by HPLC,"40° C./75% RH, Initial",49.9 % w/w
"Cn1ncc(-c2nc(NC3CCC(N)CC3)ncc2Cl)c1CC1CC1 (stereo not drawn) [benzoate salt, (1r,4r)-N^1-(5-chloro-4-(5-(cyclopropylmethyl)-1-methyl-1H-pyrazol-4-yl)pyrimidin-2-yl)cyclohexane-1,4-diamine]",loss upon drying at 5% RH,[4],0.02%
same,gain from 5 to 95% RH,[4],1.20%
same,loss from 95 to 5% RH,[4],1.30%
same,pH of Solution,[5]; listed as Benzoate,4.31
"(1r,4r)-N^1-(5-chloro-4-(5-(cyclopropylmethyl)-1-methyl-1H-pyrazol-4-yl)pyrimidin-2-yl)cyclohexane-1,4-diamine [adipate salt]",loss upon drying at 5% RH,[4],0.05%
same,gain from 5 to 95% RH,[4],1.05%
same,loss from 95 to 5% RH,[4],1.11%
same,hygroscopicity,[4]; [8],not hygroscopic
same,pH of Solution,[5],4.73
"Cl.Cl.Cn1ncc(-c2nc(N[C@H]3CC[C@H](N)CC3)ncc2Cl)c1CC1CC1 [dihydrochloride salt, (1r,4r)-N^1-(5-chloro-4-(5-(cyclopropylmethyl)-1-methyl-1H-pyrazol-4-yl)pyrimidin-2-yl)cyclohexane-1,4-diamine dihydrochloride, reference compound]",loss upon drying at 5% RH,[4],1.2%
same,gain from 5 to 95% RH,[4],17%
same,loss from 95 to 5% RH,[4],16%
same,hygroscopicity,"[4]; background statement, no method given there",highly hygroscopic
same,hygroscopicity,[4]; [8],highly hygroscopic
same,pH of Solution,[5],1.55
same,treating acute myeloid leukemia (AML),[7],effective
